Test results from paper PMC9601806, “Calcium Binding Mechanism of Soybean Peptide with Histidine Alteration by Molecular Docking Analysis and Spectroscopic Methods” (Foods, 2022).
Residues, ends and D or L forms follow the SMILES beside them.

How the values were obtained:
[1] = Simulated gastrointestinal digestion and Caco-2 absorption, LC-MS/MS identification; format: in vitro ADME; conditions: pepsin pH 2, 37 °C, 90 min, then trypsin and bile salts pH 7.5, Caco-2 absorption 0.1 mg/mL, 2 h
Protocol: The simulation of gastrointestinal digestion was carried out following the method described before with some modifications. The gastric set was reproduced by the suspension of porcine pepsin (40 mg) into 1 mL 0.1N HCl. The intestinal stage was stimulated by adding bile salts (40 mg) and trypsin (10 mg) into 5 mL of 0.1 mol/L NaHCO3. Gastric digestion was performed by incubating the CBP–calcium complex or CaCl2 (prepared with equal Ca^2+ concentration, pH = 2) at a pepsin/substrate ratio of 1:100 (w/w) in a water bath shaker (37 °C, 90 min). […], the […] at 1:25 (w/w) of substrates was added, following by adjusting the pH to 7.5. After that, samples were removed after deactivating trypsin by thermal denaturation for 5 min. Then, the obtained samples were lyophilized and stored at −20 °C for the sake of subsequent studies.
The human intestinal Caco-2 cell line has been extensively used as an intestinal barrier model. These cells were cultured in high-glucose Dulbecco’s Eagle’s medium (DMEM), which contained 10% fetal bovine serum (FBS), 100 μg mL^−1 streptomycin, and 100 U mL^−1 penicillin, and were incubated at 37 °C in a humidified 5% CO2 incubator. Transepithelial transport through the Caco-2 single cell layer was performed in accordance with Wang et al.’s method. […]

[2] = cited from earlier work
Protocol: To clarify the calcium-binding capacity of CBP-H, Nanjing Peptide Biotechnology Corporation. Ltd. (Nanjing, China) synthesized the peptide CBP-H using a solid-phase procedure. High performance liquid chromatography (HPLC) analysis was performed to determine the purity (98%) of CBP-H (Figure S1A), and ESI mass spectrometry was used to confirm the peptide structure. […] In addition, the CBP-H–Ca complex was prepared, followed by ICP-AES to detect the calcium-binding capacity. […] Spectroscopic methods were used to analyze the binding mode and binding sites including ITC, UV, FTIR, and XRD. Isothermal titration calorimetry was always used to measure reversible reactions between bio-molecules. This methodology provided the affinity constant, stoichiometry, enthalpy, and entropy of the biomolecular interactions.

stability after simulated gastrointestinal digestion [1]	Compound	also measured
partially stable	CC[C@H](C)[C@H](NC(=O)[C@H](CCC(N)=O)NC(=O)[C@H](CCC(=O)O)NC(=O)[C@H](CC(=O)O)NC(=O)[C@H](CCC(=O)O)NC(=O)[C@@H](N)CC(=O)O)C(=O)N1CCC[C@H]1C(=O)N[C@@H](CO)C(=O)N[C@@H](Cc1c[nH]cn1)C(=O)N1CCC[C@H]1C(=O)N1CCC[C@H]1C(=O)N[C@@H](CCCNC(=N)N)C(=O)O [CBP, Asp-Glu-Asp-Glu-Gln-IIe-Pro-Ser-His-Pro-Pro-Arg] (H-DEDEQIPSHPPR-OH)	
partially stable	CC[C@H](C)[C@H](NC(=O)[C@H](CCC(N)=O)NC(=O)[C@H](CCC(=O)O)NC(=O)[C@H](CC(=O)O)NC(=O)[C@H](CCC(=O)O)NC(=O)[C@@H](N)CC(=O)O)C(=O)N1CCC[C@H]1C(=O)N[C@@H](CO)C(=O)N[C@@H](CC(C)C)C(=O)N1CCC[C@H]1C(=O)N1CCC[C@H]1C(=O)N[C@@H](CCCNC(=N)N)C(=O)O [CBP-H, Asp-Glu-Asp-Glu-Gln-IIe-Pro-Ser-Leu-Pro-Pro-Arg] (H-DEDEQIPSLPPR-OH)	
	GPAGPHGPVG [tilapia bone collagen peptide, literature comparison]	calcium-binding capacity ([2]; tilapia bone collagen peptide): 18.80 ± 0.49 mg/g
	Thr-Cys-His	calcium binding capacity ([2]; peptide from shrimp protein hydrolysates): 2.7 mmol/g
